Patent US20180036289A1 (Gilead Sciences, Inc., priority 2016, published 2018)

System: cell lines tested
Assay: Cell proliferation assay, summary across all cell lines and drugs
Type: cell-based
Details: compared to primary drug alone
Procedure: All cell lines were obtained from the American Type Culture Collection (ATCC) Manassas, Va. (US). Master and working cell banks (MCB and WCB) were prepared by subculturing in ATCC-recommended media and freezing protocols (www.atcc.org). Cell line stocks for the assays were prepared from the WCB. The MCB, WCBs and assay stocks were prepared within respectively 3, 6 and 9 passages of the ATCC vial.
Solid powders of reference compounds were weighed on a calibrated balance and dissolved in 100% DMSO. DMSO samples were stored at room temperature. At the day of the experiment, the compound stock was diluted in 3.16 fold steps in 100% DMSO to obtain a 9-point dilution series. This was further diluted 31.6 times in 20 mM sterile Hepes buffer pH 7.4. A volume of 5 μl was transferred to the cells to generate a test concentration range from 3.16×10^−5M to 3.16×10^−9 M in duplicate. The final DMSO concentration during incubation was […] in all wells.
An assay stock was thawed and diluted in its ATCC recommended medium and dispensed in a 384-well plate, depending on the cell line used, at a concentration of 200-3200 cells per well in 45 μl medium. For each used cell line the optimal cell density is used. The margins of the plate were filled with phosphate-buffered saline. Plated cells were incubated in a humidified atmosphere of 5% CO2 at 37° C. After 24 hours, 5 μl of compound dilution was added and plates were further incubated for another 120 hours. After 120 hours, 25 μl of ATPlite 1Step™ (PerkinElmer) solution was added to each well, and subsequently shaken for 2 minutes. After 10 minutes of incubation in the dark, the luminescence was recorded on an Envision multimode reader (PerkinElmer).
IC50s were calculated by non-linear regression using IDBS XLfit 5. The percentage growth after 120 h (%-growth) was calculated as follows: 100%×(luminescencet=120h/luminescenceuntreated,t=120h). This was fitted to the ^10log compound concentration (conc) by a 4-parameter logistics curve: %−growth=bottom+(top−bottom)/(1+10^(log IC50-conc)*hill)), where hill is the Hill-coefficient, and bottom and top the asymptotic minimum and maximum cell growth that the compound allows in that assay.

SMILES: CC(C)c1nc(CN(C)C(=O)N[C@@H](CCN2CCOCC2)C(=O)N[C@H](CC[C@H](Cc2ccccc2)NC(=O)OCc2cncs2)Cc2ccccc2)cs1 [cobicistat]
- increase in sensitivity to the primary drug, maximum (maximum across all experiments): 8.7 fold
- increase in sensitivity to the primary drug, average (on average, across all experiments): 2.9 fold
